Data as given in US10947252B2, “Inhibitors of KEAP1-Nrf2 protein-protein interaction” (Janssen Pharmaceutica NV, priority 2018, dated 2021).

Experiments:
[1] = target: Kelch domain of human KEAP1 (321-624 aa) (Homo sapiens (Human), UniProt Q14145); assay: KEAP1 KELCH ThermoFluor binding assay; settings: KEAP Kelch […], 1,8-ANS, pH 7.0, average of results obtained, read-out: Tf Kd;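 further: Ligand-induced melting temperature shift of E. coli-expressed KEAP1 Kelch protein, Kd estimated from concentration-response curves of ΔTm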
[2] = test system: Glo-Response ARE-luc2P HEK293 cell line; assay: ARE luciferase reporter cell-based assay; settings: Homo sapiens, HEK293, 24 h, average of results obtained;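 further: luciferase signal tracks Nrf2 activation of the ARE once compounds disrupt KEAP1-Nrf2 binding, read with One-Glo reagent, DMSO serving as low control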

Chain of Kelch domain of human KEAP1 (321-624 aa) (Q14145 321-624): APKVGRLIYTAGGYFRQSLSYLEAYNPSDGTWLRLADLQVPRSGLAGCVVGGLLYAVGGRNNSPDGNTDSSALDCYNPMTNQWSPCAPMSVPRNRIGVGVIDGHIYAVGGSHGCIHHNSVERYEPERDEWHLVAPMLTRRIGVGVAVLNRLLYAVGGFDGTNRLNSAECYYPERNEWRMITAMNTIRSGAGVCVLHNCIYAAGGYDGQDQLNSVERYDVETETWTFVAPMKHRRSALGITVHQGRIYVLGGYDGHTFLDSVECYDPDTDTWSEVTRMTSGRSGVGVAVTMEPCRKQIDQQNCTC

| Kd [1] [µM] | Structure (SMILES) | EC50 [2] [µM] |
| --- | --- | --- |
| < 0.001 | Cc1ccc([C@H](CC(=O)O)c2ccn3c(C(F)F)nnc3c2C)cc1CN1CC2(CC2)Oc2ncc(F)cc2S1(=O)=O (single isomer, unassigned) [Example 527, (*S)-3-(3-(Difluoromethyl)-8-methyl-[1,2,4]triazolo[4,3-a]pyridin-7-yl)-3-(3-((8′-fluoro-1′,1′-dioxidospiro[cyclopropane-1,4′-pyrido[2,3-b][1,4,5]oxathiazepin]-2′(3′H)-yl)methyl)-4-methylphenyl)propanoic Acid] | 0.0222 |
| < 0.001 | Cc1ccc([C@@H](CC(=O)O)c2ccn3c(C(F)F)nnc3c2C)cc1CN1CC2(CC2)Oc2ncc(F)cc2S1(=O)=O (single isomer, unassigned) [Example 528, (*R)-3-(3-(Difluoromethyl)-8-methyl-[1,2,4]triazolo[4,3-a]pyridin-7-yl)-3-(3-((8′-fluoro-1′,1′-dioxidospiro[cyclopropane-1,4′-pyrido[2,3-b][1,4,5]oxathiazepin]-2′(3′H)-yl)methyl)-4-methylphenyl)propanoic Acid] | 0.236 |
| < 0.001 | Cc1ccc([C@@H](CC(=O)O)c2ccn3c(C(F)F)nnc3c2C)cc1CN1CC2(CC2)Oc2ncc(Cl)cc2S1(=O)=O (single isomer, unassigned) [Example 531, (*R)-3-(3-((8′-Chloro-1′,1′-dioxidospiro[cyclopropane-1,4′-pyrido[2,3-b][1,4,5]oxathiazepin]-2′(3′H)-yl)methyl)-4-methylphenyl)-3-(3-(difluoromethyl)-8-methyl-[1,2,4]triazolo[4,3-a]pyridin-7-yl)propanoic Acid] | 0.113 |
| < 0.001 | Cc1ccc([C@H](CC(=O)O)c2ccn3c(C(F)F)nnc3c2C)cc1CN1CC2(CCOCC2)Oc2ncc(F)cc2S1(=O)=O (single isomer, unassigned) [Example 533, (*S)-3-(3-(Difluoromethyl)-8-methyl-[1,2,4]triazolo[4,3-a]pyridin-7-yl)-3-(3-((8′-fluoro-1′,1′-dioxido-2,3,5,6-tetrahydrospiro[pyran-4,4′-pyrido[2,3-b][1,4,5]oxathiazepin]-2′(3′H)-yl)methyl)-4-methylphenyl)propanoic Acid] | 0.0313 |
| < 0.001 | Cc1ccc([C@@H](CC(=O)O)c2ccn3c(C(F)F)nnc3c2C)cc1CN1CC2(CCOCC2)Oc2ncc(F)cc2S1(=O)=O (single isomer, unassigned) [Example 534, (*R)-3-(3-(Difluoromethyl)-8-methyl-[1,2,4]triazolo[4,3-a]pyridin-7-yl)-3-(3-((8′-fluoro-1′,1′-dioxido-2,3,5,6-tetrahydrospiro[pyran-4,4′-pyrido[2,3-b][1,4,5]oxathiazepin]-2′(3′H)-yl)methyl)-4-methylphenyl)propanoic Acid] | 0.0992 |
| < 0.001 | Cc1cnc2c(c1)S(=O)(=O)N(Cc1cc([C@H](CC(=O)O)c3ccn4c(C(F)F)nnc4c3C)ccc1C)CC1(CC1)O2 (single isomer, unassigned) [Example 536, (*S)-3-(3-(Difluoromethyl)-8-methyl-[1,2,4]triazolo[4,3-a]pyridin-7-yl)-3-(4-methyl-3-((8′-methyl-1′,1′-dioxidospiro[cyclopropane-1,4′-pyrido[2,3-b][1,4,5]oxathiazepin]-2′(3′H)-yl)methyl)phenyl)propanoic Acid] | 0.0597 |
| < 0.001 | Cc1cnc2c(c1)S(=O)(=O)N(Cc1cc([C@@H](CC(=O)O)c3ccn4c(C(F)F)nnc4c3C)ccc1C)CC1(CC1)O2 (single isomer, unassigned) [Example 537, (*R)-3-(3-(Difluoromethyl)-8-methyl-[1,2,4]triazolo[4,3-a]pyridin-7-yl)-3-(4-methyl-3-((8′-methyl-1′,1′-dioxidospiro[cyclopropane-1,4′-pyrido[2,3-b][1,4,5]oxathiazepin]-2′(3′H)-yl)methyl)phenyl)propanoic Acid] | 0.464 |
| < 0.001 | Cc1ccc2c(n1)OC1(CC1)CN(Cc1cc([C@H](CC(=O)O)c3ccn4c(C(F)(F)F)nnc4c3C)ccc1C)S2(=O)=O (single isomer, unassigned) [Example 538, (*S)-3-(4-Methyl-3-((7′-methyl-1′,1′-dioxidospiro[cyclopropane-1,4′-pyrido[2,3-b][1,4,5]oxathiazepin]-2′(3′H)-yl)methyl)phenyl)-3-(8-methyl-3-(trifluoromethyl)-[1,2,4]triazolo[4,3-a]pyridin-7-yl)propanoic Acid] | 0.0589 |
| < 0.001 | Cc1ccc([C@H](CC(=O)O)c2ccn3c(C(F)F)nnc3c2C)cc1CN1C[C@H]2CCCN2c2ncc(C#N)cc2S1(=O)=O (single isomer, unassigned) [Example 540, (*S)-3-(3-(((*R)-3-Cyano-5,5-dioxido-7a,8,9,10-tetrahydropyrido[2,3-f]pyrrolo[2,1-d][1,2,5]thiadiazepin-6(7H)-yl)methyl)-4-methylphenyl)-3-(3-(difluoromethyl)-8-methyl-[1,2,4]triazolo[4,3-a]pyridin-7-yl)propanoic Acid] | 0.0267 |
| < 0.001 | Cc1ccc([C@@H](CC(=O)O)c2ccn3c(C(F)F)nnc3c2C)cc1CN1C[C@H]2CCCN2c2ncc(C#N)cc2S1(=O)=O (single isomer, unassigned) [Example 541, (*R)-3-(3-(((*R)-3-Cyano-5,5-dioxido-7a,8,9,10-tetrahydropyrido[2,3-f]pyrrolo[2,1-d][1,2,5]thiadiazepin-6(7H)-yl)methyl)-4-methylphenyl)-3-(3-(difluoromethyl)-8-methyl-[1,2,4]triazolo[4,3-a]pyridin-7-yl)propanoic Acid] | 0.223 |
| < 0.001 | Cc1ccc([C@H](CC(=O)O)c2ccn3c(C(F)F)nnc3c2C)cc1CN1C[C@@H]2CCCN2c2ncc(C#N)cc2S1(=O)=O (single isomer, unassigned) [Example 543, (*S)-3-(3-(((S)-3-Cyano-5,5-dioxido-7a,8,9,10-tetrahydropyrido[2,3-f]pyrrolo[2,1-d][1,2,5]thiadiazepin-6(7H)-yl)methyl)-4-methylphenyl)-3-(3-(difluoromethyl)-8-methyl-[1,2,4]triazolo[4,3-a]pyridin-7-yl)propanoic Acid] | 0.0429 |
| < 0.001 | Cc1ccc([C@@H](CC(=O)O)c2ccn3c(C(F)F)nnc3c2C)cc1CN1C[C@@H]2CCCN2c2ncc(C#N)cc2S1(=O)=O (single isomer, unassigned) [Example 544, (*R)-3-(3-(((S)-3-Cyano-5,5-dioxido-7a,8,9,10-tetrahydropyrido[2,3-f]pyrrolo[2,1-d][1,2,5]thiadiazepin-6(7H)-yl)methyl)-4-methylphenyl)-3-(3-(difluoromethyl)-8-methyl-[1,2,4]triazolo[4,3-a]pyridin-7-yl)propanoic Acid] | 0.278 |
| 0.26 | Cc1ccc([C@H](CC(N)=O)c2ccn3c(C(F)(F)F)nnc3c2C)cc1CN1C[C@@H]2CCCCN2c2ncccc2S1(=O)=O (single isomer, unassigned) [Example 548, (*S)-3-(3-(((*S)-5,5-Dioxido-7,7a,8,9,10,11-hexahydro-6H-dipyrido[2,1-d:2′,3′-f][1,2,5]thiadiazepin-6-yl)methyl)-4-methylphenyl)-3-(8-methyl-3-(trifluoromethyl)-[1,2,4]triazolo[4,3-a]pyridin-7-yl)propanamide] | 2.74 |
| 84.6 | Cc1ccc([C@@H](CC(N)=O)c2ccn3c(C(F)(F)F)nnc3c2C)cc1CN1C[C@@H]2CCCCN2c2ncccc2S1(=O)=O (single isomer, unassigned) [Example 549, (*R)-3-(3-(((*S)-5,5-Dioxido-7,7a,8,9,10,11-hexahydro-6H-dipyrido[2,1-d:2′,3′-f][1,2,5]thiadiazepin-6-yl)methyl)-4-methylphenyl)-3-(8-methyl-3-(trifluoromethyl)-[1,2,4]triazolo[4,3-a]pyridin-7-yl)propanamide] | > 20 |
| 0.15 | Cc1ccc([C@H](CC(=O)O)c2ccn3c(C(F)F)nnc3c2C)cc1CN1CC2(CC2)Oc2ncc(C(N)=O)cc2S1(=O)=O (single isomer, unassigned) [Example 552, (*S)-3-(3-((8′-Carbamoyl-1′,1′-dioxidospiro[cyclopropane-1,4′-pyrido[2,3-b][1,4,5]oxathiazepin]-2′(3′H)-yl)methyl)-4-methylphenyl)-3-(3-(difluoromethyl)-8-methyl-[1,2,4]triazolo[4,3-a]pyridin-7-yl)propanoic Acid] | > 20 |
| 0.769 | Cc1ccc([C@@H](CC(=O)O)c2ccn3c(C(F)F)nnc3c2C)cc1CN1CC2(CC2)Oc2ncc(C(N)=O)cc2S1(=O)=O (single isomer, unassigned) [Example 553, (*R)-3-(3-((8′-Carbamoyl-1′,1′-dioxidospiro[cyclopropane-1,4′-pyrido[2,3-b][1,4,5]oxathiazepin]-2′(3′H)-yl)methyl)-4-methylphenyl)-3-(3-(difluoromethyl)-8-methyl-[1,2,4]triazolo[4,3-a]pyridin-7-yl)propanoic Acid] | > 20 |
| < 0.001 | Cc1ccc([C@H](c2ccn3c(C(F)(F)F)nnc3c2C)[C@H](C)C(=O)O)cc1CN1CC2(CC2)Oc2ncccc2S1(=O)=O (single isomer, unassigned) [Example 554, (2S,3*R)-3-(3-(Trifluoromethyl)-8-methyl-[1,2,4]triazolo[4,3-a]pyridin-7-yl)-3-(3-((1′,1′-dioxidospiro[cyclopropane-1,4′-pyrido[2,3-b][1,4,5]oxathiazepin]-2′(3′H)-yl)methyl)-4-methylphenyl)-2-methylpropanoic Acid] | 0.181 |
| < 0.001 | CCn1nnc2c(C)c([C@H](c3ccc(C)c(CN4CC5(CCOCC5)Oc5ncccc5S4(=O)=O)n3)C(C)(C)C(=O)O)ccc21 (single isomer, unassigned) [Example 555, (*S)-3-(6-((1′,1′-Dioxido-2,3,5,6-tetrahydrospiro[pyran-4,4′-pyrido[2,3-b][1,4,5]oxathiazepin]-2′(3′H)-yl)methyl)-5-methylpyridin-2-yl)-3-(1-ethyl-4-methyl-1H-benzo[d][1,2,3]triazol-5-yl)-2,2-dimethylpropanoic Acid] | 0.00142 |
